Reference: PMC12165799, “Antimicrobial peptide developed with machine learning sequence optimization targets drug resistant Staphylococcus aureus in mice” (The Journal of Clinical Investigation, 2025)

Columns and labels:
[1] = tested on: S. aureus MW2 membrane; experiment: SYTOX-based cell membrane permeability assay; parameters: species or system Staphylococcus aureus; details: S. aureus MW2, 1 hour; CIT-8 4–32 μg/mL
Description: 484 min at room temperature in the dark based on a previously established protocol (8). We added 90
485 µl of the dye/bacteria mixture to 10 μl of serially diluted 10× peptide concentration in black, 96-
486 well plates (Cat. no. 3904, Corning, NY, USA) and incubated the plates for 1 hour at room
487 temperature. We measured the fluorescence with excitation and emission wavelengths of 485 nm
488 and 525 nm, respectively in endpoint assay mode using a SpectraMax i3x (Molecular Devices,
489 CA, USA) fluorescence reader.
490 Propidium iodide-based membrane permeability
491 We used a propidium iodide (Thermo Fisher Scientific, MA, USA) fluorescence-based
492 bacterial permeation assay to establish membrane-oriented interactions with the designed peptides
493 based on a previously established protocol (8). We prepared exponential phase S. aureus MW2
494 bacteria and diluted to OD600 = 0.4 in PBS. We added PI dye (final concentration = 2 µM) to the
495 bacteria in 1:10 serial dilutions in black, 96-well plates (Cat. no. 3904, Corning, NY, USA) and
496 incubated the plates for 1 hour at room temperature. We then measured the fluorescence with an
497 excitation wavelength of 584 nm and an emission wavelength of 620 nm in endpoint assay mode
498 using a SpectraMax i3x (Molecular Devices, CA, USA) fluorescence reader.
501 To determine the ATP leakage potential of the peptides, we employed a luciferase-based […]

[2] = tested on: S. aureus MW2; experiment: RNAseq differential gene expression; type: cell-based, Staphylococcus aureus; details: 0.5× MIC, 30 min
Description: 553 For RNAseq studies, we followed the recommended procedure by Novogene (Sacramento,
554 CA, USA) (22). In brief, we used exponential cultures of S. aureus MW2 grown in TSB medium
555 adjusted to OD600=0.4. We treated 10 ml of the bacterial culture with 0.5× MIC of CIT-8 or water
556 (as a negative control) for 30 min at 37°C (180 rpm). After that, we washed the bacteria three times
557 with PBS and stored the pellet at -80°C. We isolated total RNA from the pellet and checked the
558 purity using the NanoPhotometer® spectrophotometer (Implen, CA, USA). We assessed RNA
559 integrity and concentration using the RNA Nano 6000 Assay Kit following manufacturer
560 instructions in a Bioanalyzer 2100 system (Agilent Technologies, CA, USA). We evaluated RNA
561 degradation and contamination on 1% agarose gels. To prepare libraries for transcriptome
562 sequencing, we used 1 µg RNA per sample as input material and generated sequencing libraries
563 using NEBNext® UltraTM RNA Library Prep Kit for Illumina® (NEB, MA, USA) following
564 manufacturer’s recommendations and added index codes to attribute sequences to each sample.
565 Briefly, we purified mRNA from total RNA using poly-T oligo-attached magnetic beads, followed
566 by fragmentation using divalent cations under elevated temperature in NEBNext First Strand
567 Synthesis Reaction Buffer (5×). To synthesize cDNA, we used random hexamer primers and M-
568 MuLV Reverse Transcriptase (RNase H-) to create the first strand, followed by DNA Polymerase
569 I and RNase H to create the second strand (23). The remaining overhangs were converted into
570 blunt ends using exonuclease/polymerase activities. We adenylated the 3’ ends of the DNA
571 fragments, and further ligated NEBNext Adaptors with hairpin loop structures to prepare for
572 hybridization. To select cDNA fragments of preferred length (150-200 bp), we purified the whole
573 library fragments with AMPure XP system (Beckman Coulter, CA, USA). Next, to the size-
574 selected, adaptor ligated cDNA, we added 3 µl USER Enzyme (NEB, MA, USA) at 37°C for 15
575 min followed by 5 min at 95°C before carrying out the polymerase chain reaction (PCR). We
576 performed the PCR with Phusion High-Fidelity DNA polymerase, Universal PCR primers, and
577 Index (X) Primer. Finally, we purified the PCR products with an AMPure XP system (Beckman
578 Coulter, CA, USA) and library quality was assessed on the Agilent Bioanalyzer 2100 system
579 (Agilent Technologies, CA, USA). […]

[3] = tested on: HepG2 cells; experiment: Mammalian cell cytotoxicity assay
Description: 410 the HepG2 cells at 37°C in 5% CO2 in Dulbecco’s Modified Eagle Medium (DMEM) (Gibco, MA,
We harvested and resuspended cells in fresh DMEM

## H-GLFKVIKKLLKVI-NH2 [CIT-8]
[1]
  SYTOX Green fluorescence (membrane permeation): significantly increased fluorescence levels
[2]
  Downregulation of tRNAGln: 8.5 fold
  Downregulation of tRNAarg: 7.7 fold
  Downregulation of tRNAcys: 6.8 fold
  Downregulation of tRNAser: 8.4 fold
  Upregulation of pdxS: 5.3 fold
  Upregulation of purH: 3.6 fold
  Upregulation of purL: 5.2 fold
  Upregulation of purQ: 5.0 fold
  Upregulation of purS: 5.0 fold
[2]; P < 0.05
  Number of genes downregulated by at least 2-fold: 267 genes
  Number of genes upregulated by more than 2-fold: 179 genes
[3]; 4 μg/ml, replicate 1
  HepG2 cell viability, Sup. Fig. 4B: 110.665
[3]; 4 μg/ml, replicate 2
  HepG2 cell viability, Sup. Fig. 4B: 94.3717
[3]; 4 μg/ml, replicate 3
  HepG2 cell viability, Sup. Fig. 4B: 107.525
[3]; 8 μg/ml, replicate 1
  HepG2 cell viability, Sup. Fig. 4B: 104.83
[3]; 8 μg/ml, replicate 2
  HepG2 cell viability, Sup. Fig. 4B: 93.4852
[3]; 8 μg/ml, replicate 3
  HepG2 cell viability, Sup. Fig. 4B: 105.572
[3]; 16 μg/ml, replicate 1
  HepG2 cell viability, Sup. Fig. 4B: 122.471
[3]; 16 μg/ml, replicate 2
  HepG2 cell viability, Sup. Fig. 4B: 104.62
[3]; 16 μg/ml, replicate 3
  HepG2 cell viability, Sup. Fig. 4B: 109.473
[3]; 32 μg/ml, replicate 1
  HepG2 cell viability, Sup. Fig. 4B: 107.545
[3]; 32 μg/ml, replicate 2
  HepG2 cell viability, Sup. Fig. 4B: 100.768
[3]; 32 μg/ml, replicate 3
  HepG2 cell viability, Sup. Fig. 4B: 106.994
[3]; 64 μg/ml, replicate 1
  HepG2 cell viability, Sup. Fig. 4B: 70.5897
[3]; 64 μg/ml, replicate 2
  HepG2 cell viability, Sup. Fig. 4B: 64.1784
[3]; 64 μg/ml, replicate 3
  HepG2 cell viability, Sup. Fig. 4B: 64.2134
[3]; 128 μg/ml, replicate 1
  HepG2 cell viability, Sup. Fig. 4B: 32.858
[3]; 128 μg/ml, replicate 2
  HepG2 cell viability, Sup. Fig. 4B: 28.9912
[3]; 128 μg/ml, replicate 3
  HepG2 cell viability, Sup. Fig. 4B: 25.6954
[3]; human liver-derived HEPG2 cells
  LD50 (concentration needed to kill 50% of HEPG2 cells): 96 µg/mL
